Laboratory results reported in patent US8309730B2, “Nonsteroidal compounds useful as modulators of glucocorticoid receptor AP-1 and/or NF-kappab acitivity and use thereof” (Bristol-Myers Squibb Company, priority 2007, dated 2012).

Target: T1, human glucocorticoid receptor (Homo sapiens, UniProt P04150)
T1 construct: purified human recombinant full-length glucocorticoid receptor (2 nM); purchased Invitrogen Part #2893
T1 sequence (P04150 1-777): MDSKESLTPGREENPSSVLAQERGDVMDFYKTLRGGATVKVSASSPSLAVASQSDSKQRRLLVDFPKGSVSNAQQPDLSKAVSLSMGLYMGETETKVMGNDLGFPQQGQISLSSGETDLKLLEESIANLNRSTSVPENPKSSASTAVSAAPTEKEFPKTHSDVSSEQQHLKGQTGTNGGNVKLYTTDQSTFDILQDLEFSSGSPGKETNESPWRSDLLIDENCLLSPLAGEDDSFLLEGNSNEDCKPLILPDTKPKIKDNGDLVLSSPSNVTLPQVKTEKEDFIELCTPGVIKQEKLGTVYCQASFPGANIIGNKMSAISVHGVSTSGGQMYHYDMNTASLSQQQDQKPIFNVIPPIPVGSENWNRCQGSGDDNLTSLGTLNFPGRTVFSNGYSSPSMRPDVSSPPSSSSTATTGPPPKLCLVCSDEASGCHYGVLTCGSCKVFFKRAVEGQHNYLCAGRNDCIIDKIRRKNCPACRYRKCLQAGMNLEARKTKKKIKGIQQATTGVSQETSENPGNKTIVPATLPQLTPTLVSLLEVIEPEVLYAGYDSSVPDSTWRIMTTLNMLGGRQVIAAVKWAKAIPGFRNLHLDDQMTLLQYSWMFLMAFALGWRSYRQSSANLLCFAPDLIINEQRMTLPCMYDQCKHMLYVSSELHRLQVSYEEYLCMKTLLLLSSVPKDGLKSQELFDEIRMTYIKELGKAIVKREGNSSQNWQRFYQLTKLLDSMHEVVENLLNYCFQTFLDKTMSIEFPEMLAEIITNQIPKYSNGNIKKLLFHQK
Experiment: Glucocorticoid Receptor Binding Assay (I), fluorescence polarization competitor kit
Details: purified human recombinant full-length GR, Fluormone GS Red, 2 h room temperature
Procedure: Briefly, purified human recombinant full-length glucocorticoid receptor (2 nM) was mixed with fluorescently labeled glucocorticoid (1 nM Fluormone GS Red) in the presence or absence of test compound. After two hours incubation at room temperature in the dark, the fluorescence polarization (FP) of the sample was measured. […] Test compounds were analyzed in the concentration range from 8.5E-05 μM to 5 μM.

Compound	Ki [nM]
C[C@]12Cn3cnc(-c4ccc(F)cc4)c3C=C1CCC[C@@H]2[C@H](O)C(F)(F)F [Example 91]	85.5
C[C@]12Cn3cnc(-c4ccc(F)cc4)c3C=C1CCC[C@@H]2C(=O)C1CCOCC1 [Example 94]	344
CC(C)(O)c1ccc([C@@](C)(O)[C@H]2CCCC3=Cc4c(-c5ccc(F)cc5)ncn4C[C@@]32C)cc1 [Example 98]	4.45
C=CC1(O)CCCC2=Cc3c(-c4ccc(F)cc4)ncn3CC21C (stereo not shown) [Example 101, 1-(4-Fluorophenyl)-5a-methyl-6-vinyl-5,5a,6,7,8,9-hexahydroimidazo[1,5-b]isoquinolin-6-ol]	755
